# Patent US20040204577A1, “Novel peptide-forming enzyme gene” (Ajinomoto Co., Inc., priority 2003, published 2004)
# Where a SMILES comes first, the peptide text is derived from it.
# What was measured:
# [1] = tested on: peptide-forming enzyme (Mono S fraction enzyme); experiment: Enzyme inhibitors: effects on the production of L-alanyl-L-glutamine; assay type: biochemical, Empedobacter brevis; conditions: for Inhibition of the enzyme (in words): serine enzyme inhibitors at 10 mM
# [2] = tested on: enzyme derived from Sphingobacterium sp. strain FERM BP-8124 (SP-Sepharose HP fraction enzyme); experiment: Enzyme substrate specificity (11), (12): peptide production; assay type: biochemical; set-up: key to Produced peptide (Table 15-1) / Produced peptide (Table 15-3) / Produced peptide (Table 15-4): +: those peptides for which production was confirmed but which were unable to be quantified due to the absence of a standard; a trace amount; conditions: carboxy component 100 mM, amine component 150 mM, 0.33 units enzyme, pH 9.0, 25° C., 1.5 hours; for Produced peptide (Table 15-4): amides and methylamine
# Excerpt: Substrate specificity was examined for enzyme derived from Sphingobacterium sp. strain FERM BP-8124 (Depositary institution: the independent administrative corporation, National Institute of Advanced Industrial Science and Technology, International Patent Organism Depositary, Address of depositary institution: Chuo Dai-6, 1-1 Higashi 1-Chome, Tsukuba-shi, Ibaraki-ken, Japan, International deposit date: […] The amounts of various peptides formed in this reaction are shown in Table 15. The “+” mark indicates those peptides for which production was confirmed but which were unable to be quantified due to the absence of a standard, while “tr” indicates a trace amount. Furthermore, Tween-80 was added to the reaction system to a final concentration of 0.1% in the case of using L-Tyr-OMe. In addition, hydrochloride salts were used for all carboxy components. Substrate specificity with respect to oligopeptide production was examined for enzyme derived from Sphingobacterium sp. strain FERM BP-8124 (Depositary institution: the independent administrative corporation, National Institute of Advanced Industrial Science and Technology, International Patent Organism Depositary, Address of depositary institution: Chuo Dai-6, 1-1 Higashi 1-Chome, Tsukuba-shi, Ibaraki-ken, Japan, International deposit date: […] The amounts of each oligopeptide formed in this reaction are shown in Table 16. Furthermore, hydrochloride salts were used for all the carboxy components.
# [3] = tested on: peptide-forming enzyme (Mono S fraction enzyme); experiment: Enzyme substrate specificity (1)-(10), (13), (14): peptide production; assay type: biochemical, Empedobacter brevis; conditions: pH 9.0, 25° C., 3 hours; for Formed peptide: L-amino acid 150 mM; for Produced peptide: L-amino acid ester 100 mM, peptide (amine component) 150 mM
# Procedure, shortened: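 Mono S enzyme fraction in 100 mM borate buffer (pH 9.0) with 10 mM EDTA and 100 mM carboxy component (amino acid methyl esters or amides); amine components (L-glutamine, amino acids, amino acid amides or methylamine) at 150 mM, or 200 mM L-glutamine with varied esters. Reactions ran at 25° C for 2–3 hours; 0.1% Tween-80 added for Trp/Tyr-OMe.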
# [4] = tested on: microbial cells of Empedobacter brevis strain FERM BP-8113; experiment: Production of peptide using microbial cells; assay type: cell-based; conditions: 1 mL cell suspension (100 g/L) + 1 mL buffer with 200 mM carboxy component (hydrochloride) and 400 mM amino acid; borate buffer pH 9.0, 10 mM EDTA; 18° C., 2 hours
# Procedure: A 50 mL medium (pH 6.2) containing 5 grams (g) of glucose, 5 g of ammonium sulfate, 1 g of monopotassium phosphate, 3 g of dipotassium phosphate, 0.5 g of magnesium sulfate, 10 g of yeast extract and 10 g of peptone in 1 liter (L) was transferred to a 500 mL Sakaguchi flask and sterilized at 115° C. for 15 minutes. This medium was then inoculated with one loopful cells of Empedobacter brevis strain FERM BP-8113 (Depositary institution: the independent administrative corporation, National Institute of Advanced Industrial Science and Technology, International Patent Organism Depositary, Address of depositary institution: Chuo Dai-6, 1-1 Higashi 1-Chome, Tsukuba-shi, Ibaraki-ken, Japan, International deposit transfer date: Jul. 8, 2002) that had been cultured at 30° C. for 16 hours in the same medium, followed by shake culturing at 30° C. for 16 hours and 120 strokes/min.
# [5] = Comparison of ability to catalyze peptide formation with known enzymes; assay type: biochemical; conditions: for L-Ala-L-Gln production rate: 100 mM L-alanine methyl ester hydrochloride, 200 mM L-glutamine, pH 9.0, 25° C., enzyme added 0.02-3.60 protein mg/ml as in Table 14; for Ratio of L-Ala-L-Gln production rate per enzyme unit weight: enzyme of present invention = 100.0
# Excerpt: The enzyme homogeneously purified in Example 3 was used as a source of the present enzyme of the present invention.
# [6] = inhibitor at 10 mM, borate buffer pH 9.0, 25° C., 5 minutes, 100 = absence of enzyme inhibitor
# [7] = L-amino acid methyl ester hydrochloride 100 mM
# [8] = 100 mM L-alanine methyl ester hydrochloride
# [9] = L-amino acid amide hydrochloride as carboxy component 100 mM
molecule,measurement,setting,value
"O=C(O)CN(CCN(CC(=O)O)CC(=O)O)CC(=O)O [EDTA, ethylene diamine tetraacetic acid]",Relative activity of L-Ala-L-Gln production,[1]; [6],96%
NCC(=O)N[C@@H](Cc1cnc[nH]1)C(=O)O [Gly-L-His] (H-Gly-His-OH),Produced peptide (Table 15-3),[2],36.2 mM
same,Formed peptide,[3]; [7],31.6 mM
same,Formed peptide,[4],22.1 mM
C[C@H](N)C(=O)N[C@@H](CCCN=C(N)N)C(=O)O [L-Ala-L-Arg] (H-Ala-Arg-OH),Produced peptide (Table 15-1),[2],72.2 mM
same,Formed peptide,[3]; [8],88.0 mM
same,Formed peptide,[4],72.1 mM
C[C@H](N)C(=O)N[C@@H](Cc1cnc[nH]1)C(=O)O [L-Ala-L-His] (H-Ala-His-OH),Produced peptide (Table 15-4),[2],tr
same,Produced peptide (Table 15-1),[2],73.6 mM
same,Formed peptide,[3]; [8],66.9 mM
same,Formed peptide,[3]; [9],3.9 mM
same,Formed peptide,[4],52.1 mM
CC(C)C[C@H](NC(=O)[C@H](C)N)C(=O)O [L-Ala-L-Leu] (H-Ala-Leu-OH),Produced peptide (Table 15-1),[2],33.0 mM
same,Formed peptide,[3]; [8],45.3 mM
same,Formed peptide,[4],38.2 mM
CSCC[C@H](NC(=O)[C@H](C)N)C(=O)O [L-Ala-L-Met] (H-Ala-Met-OH),Produced peptide (Table 15-4),[2],tr
same,Produced peptide (Table 15-1),[2],86.9 mM
same,Formed peptide,[3]; [8],83.3 mM
same,Formed peptide,[3]; [9],3.4 mM
same,Formed peptide,[4],68.3 mM
C[C@H](N)C(=O)N[C@@H](Cc1ccccc1)C(=O)O [L-Ala-L-Phe],Produced peptide (Table 15-1),[2],69.5 mM
same,Formed peptide,[3]; [8],74.4 mM
same,Formed peptide,[4],62.4 mM
C[C@H](N)C(=O)N[C@@H](CO)C(=O)O [L-Ala-L-Ser] (H-Ala-Ser-OH),Produced peptide (Table 15-1),[2],43.8 mM
same,Formed peptide,[3]; [8],62.5 mM
same,Formed peptide,[4],51.3 mM
CC[C@H](C)[C@H](N)C(=O)N[C@@H](CCSC)C(=O)O [L-Ile-L-Met] (H-Ile-Met-OH),Produced peptide (Table 15-3),[2],5.1 mM
same,Formed peptide,[3]; [7],10.0 mM
same,Formed peptide,[4],8.3 mM
CSCC[C@H](N)C(=O)N[C@@H](Cc1ccccc1)C(=O)O [L-Met-L-Phe] (H-Met-Phe-OH),Produced peptide (Table 15-3),[2],8.9 mM
same,Formed peptide,[4],28.5 mM
N[C@@H](CO)C(=O)N[C@@H](CO)C(=O)O [L-Ser-L-Ser] (H-Ser-Ser-OH),Produced peptide (Table 15-3),[2],9.9 mM
same,Formed peptide,[3]; [7],38.0 mM
same,Formed peptide,[4],29.0 mM
CC(C)C[C@H](NC(=O)[C@@H](N)[C@@H](C)O)C(=O)O [L-Thr-L-Leu] (H-Thr-Leu-OH),Produced peptide (Table 15-3),[2],15.3 mM
same,Formed peptide,[3]; [7],28.4 mM
same,Formed peptide,[4],23.0 mM
CSCC[C@H](NC(=O)[C@@H](N)C(C)C)C(=O)O [L-Val-L-Met] (H-Val-Met-OH),Produced peptide (Table 15-3),[2],6.8 mM
same,Formed peptide,[3]; [7],10.3 mM
same,Formed peptide,[4],10.5 mM
O=C(O)CI [Monoiodoacetate],Relative activity of L-Ala-L-Gln production,[1]; pH 9,101%
CCN1C(=O)C=CC1=O [N-Ethyl maleimide],Relative activity of L-Ala-L-Gln production,[1]; [6],110%
"O=S(=O)(F)Cc1ccccc1 [Phenylmethylsulfonyl fluoride, phenylmethylsulfonyl fluoride]",Relative activity of L-Ala-L-Gln production,[1]; [6],115%
same,Inhibition of the enzyme (in words),[1],not inhibited
"c1cnc2c(c1)ccc1cccnc12 [o-Phenanthroline, o-phenanthroline]",Relative activity of L-Ala-L-Gln production,[1]; [6],96%
"N=C(N)Nc1ccc(C(=O)Oc2ccc([N+](=O)[O-])cc2)cc1 [p-Nitrophenyl-p′-guanidino benzoate, p-nitrophenyl-p′-guanidinobenzoate]",Relative activity of L-Ala-L-Gln production,[1]; [6],0.1%
same,Inhibition of the enzyme (in words),[1],inhibited
Bromelain,L-Ala-L-Gln production rate,[5],0.0062 mM/min
same,Ratio of L-Ala-L-Gln production rate per enzyme unit weight,[5],0.0010
"Chymopapain: thiol endopeptidase described in EP 359399B1, purified enzyme manufactured by Sigma",L-Ala-L-Gln production rate,[5],0.0100 mM/min
same,Ratio of L-Ala-L-Gln production rate per enzyme unit weight,[5],0.0013
Ficin,L-Ala-L-Gln production rate,[5],0.0096 mM/min
same,Ratio of L-Ala-L-Gln production rate per enzyme unit weight,[5],0.0017
L-Ala-Gly-Gly,"Produced peptide (Table 16, oligopeptide)",[2],33.7 mM
same,Produced peptide,[3],41.7 mM
L-Ala-Gly-L-Ala,"Produced peptide (Table 16, oligopeptide)",[2],35.1 mM
same,Produced peptide,[3],25.9 mM
L-Ala-L-Ala-L-Ala,"Produced peptide (Table 16, oligopeptide)",[2],41.1 mM
same,Produced peptide,[3],57.5 mM
L-Ala-L-Ala-L-Ala-L-Ala,"Produced peptide (Table 16, oligopeptide)",[2],30.1 mM
same,Produced peptide,[3],44.5 mM
L-Ala-L-Ala-L-Ala-L-Ala-L-Ala,"Produced peptide (Table 16, oligopeptide)",[2],22.8 mM
same,Produced peptide,[3],34.8 mM
L-Ala-L-His-L-Ala,"Produced peptide (Table 16, oligopeptide)",[2],58.0 mM
same,Produced peptide,[3],55.9 mM
L-Ala-L-Leu-L-Ala,"Produced peptide (Table 16, oligopeptide)",[2],40.7 mM
same,Produced peptide,[3],48.3 mM
L-Ala-L-Phe-Gly,"Produced peptide (Table 16, oligopeptide)",[2],34.0 mM
same,Produced peptide,[3],43.7 mM
L-Ala-L-Phe-L-Ala,"Produced peptide (Table 16, oligopeptide)",[2],24.8 mM
same,Produced peptide,[3],49.7 mM
L-Thr-Gly-Gly,"Produced peptide (Table 16, oligopeptide)",[2],8.4 mM
same,Produced peptide,[3],83.0 mM
"Carboxypeptidase Y: known enzyme described in EP 278787A1, purified enzyme manufactured by Sigma (protein, UniProt P00729 112-532, looked up) Carboxypeptidase Y: KIKDPKILGIDPNVTQYTGYLDVEDEDKHFFFWTFESRNDPAKDPVILWLNGGPGCSSLTGLFFELGPSSIGPDLKPIGNPYSWNSNATVIFLDQPVNVGFSYSGSSGVSNTVAAGKDVYNFLELFFDQFPEYVNKGQDFHIAGESYAGHYIPVFASEILSHKDRNFNLTSVLIGNGLTDPLTQYNYYEPMACGEGGEPSVLPSEECSAMEDSLERCLGLIESCYDSQSVWSCVPATIYCNNAQLAPYQRTGRNVYDIRKDCEGGNLCYPTLQDIDDYLNQDYVKEAVGAEVDHYESCNFDINRNFLFAGDWMKPYHTAVTDLLNQDLPILVYAGDKDFICNWLGNKAWTDVLPWKYDEEFASQKVRNWTASITDEVAGEVKSYKHFTYLRVFNGGHMVPFDVPENALSMVNEWIHGGFSL",L-Ala-L-Gln production rate,[5],0.0257 mM/min
same,Ratio of L-Ala-L-Gln production rate per enzyme unit weight,[5],0.0191
"Papain: thiol endopeptidase described in EP 359399B1, purified enzyme manufactured by Sigma (protein, UniProt P00784 134-345, looked up) Papain: IPEYVDWRQKGAVTPVKNQGSCGSCWAFSAVVTIEGIIKIRTGNLNEYSEQELLDCDRRSYGCNGGYPWSALQLVAQYGIHYRNTYPYEGVQRYCRSREKGPYAAKTDGVRQVQPYNEGALLYSIANQPVSVVLEAAGKDFQLYRGGIFVGPCGNKVDHAVAAVGYGPNYILIKNSWGTGWGENGYIRIKRGTGNSYGVCGLYTSSFYPVKN",L-Ala-L-Gln production rate,[5],0.0106 mM/min
same,Ratio of L-Ala-L-Gln production rate per enzyme unit weight,[5],0.0021
